Laboratory results from PMC8523172, “Structure of mycobacterial CIII2CIV2 respiratory supercomplex bound to the tuberculosis drug candidate telacebec (Q203)” (eLife, 2021).

Assays:
Type in all cases: biochemical
[1] = biological target: T1, CIII2CIV2 supercomplex, subunit QcrB (QP site) (Mycolicibacterium smegmatis, UniProt I7FGS8+I7GD61); experiment: Clark-type electrode oxygen consumption, purified enzyme turnover ([…] substrate)
T1 construct: purified CIII2CIV2 supercomplex with 3×FLAG tag at the C terminus of QcrB; with QcrA (Rieske subunit) within CIII2CIV2

[2] = biological target: T1, CIII2CIV2 supercomplex, subunit QcrB (QP site); experiment: Clark-type electrode oxygen consumption, purified enzyme
[3] = biological target: T1, CIII2CIV2 supercomplex, subunit QcrB (QP site); experiment: oxygen consumption (DMWH2:O2 oxidoreductase) inhibition of purified enzyme

Cc1c(C)c(O)c2ccccc2c1O [DMWH2, 2,3-dimethyl-[1,4]naphthohydroquinone]
Clark-type electrode oxygen consumption, purified enzyme turnover (100 μM substr) [1]: 91 ± 4 e^-/s

Cc1cc(O)c2ccccc2c1O [menadiol, 2-methyl-[1,4]naphthohydroquinone]
Clark-type electrode oxygen consumption, purified enzyme [2]: CIII2CIV2 activity is greater with DMWH2 green curve, than with menadiol brown curve

CCc1nc2ccc(Cl)cn2c1C(=O)NCc1ccc(N2CCC(c3ccc(OC(F)(F)F)cc3)CC2)cc1 [telacebec]
IC50 [3]: 0.053 ± 0.019 µM
